Laboratory results published in US20240091299A1, “TOPICAL COMPOSITIONS FOR ENHANCING A MAN'S SEXUAL RESPONSIVENESS AND PERFORMANCE” (The Hidden Vault LLC, priority 2022, published 2024).

System: penis of a person
Test: topical application of the compositions (massage oil) to a person's penis, twice daily
Format: in vivo, human
Details: ingredient as included in the compositions, applied topically to a person's penis as a massage oil

`C=C(C)[C@@H]1CCC(C)=C[C@H]1c1c(O)cc(CCCCC)cc1O` [CBD, Cannabidiol] was tested, and the “effect on sexual arousal, performance, libido and penis size” value was “enhances sexual arousal and performance and stamina”.
